{"source": "patent US11981686B2", "about": "“Urea compound having substituent” (DAIICHI SANKYO COMPANY, LIMITED, priority 2019, dated 2024)", "data": [{"target": "SIRT6 enzyme (Homo sapiens, UniProt Q8N6T7)", "sequence (Q8N6T7 whole entry, species assumed)": "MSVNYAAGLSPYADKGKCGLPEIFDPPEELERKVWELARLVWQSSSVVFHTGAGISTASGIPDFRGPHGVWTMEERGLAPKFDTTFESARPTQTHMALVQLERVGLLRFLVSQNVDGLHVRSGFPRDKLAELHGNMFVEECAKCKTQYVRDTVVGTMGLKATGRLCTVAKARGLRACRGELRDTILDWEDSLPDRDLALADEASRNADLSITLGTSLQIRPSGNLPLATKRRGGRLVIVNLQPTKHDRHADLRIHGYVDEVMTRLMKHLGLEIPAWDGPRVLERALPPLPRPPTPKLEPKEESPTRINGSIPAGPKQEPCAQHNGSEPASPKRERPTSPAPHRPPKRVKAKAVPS", "assay": "Measurement of deacetylation activity (SIRT6, AlphaLISA, H3K9(Ac) peptide)", "format": "biochemical", "conditions": "SIRT6 25 ng/mL, H3K9(Ac) biotin peptide 2 nM, NAD 10 μM, room temperature 30 minutes, duplicate", "protocol": "The reaction was performed in duplicate using a white 384-well plate (3824, Corning or 6008350, PerkinElmer) at a final reaction liquid volume of 20.1 μL. As a control for calculating the enzyme activity, the enzyme-added (DMSO (+)) and enzyme-free (DMSO (−)) wells were set at n=8. Test substances (examples of final concentrations: 0.046, 0.14, 0.41, 1.2, 3.7, 11, 33, and 100 μM) at a concentration of 100 times or 0.1 μL of DMSO was dispensed into the plate and 5 μL of SIRT6 enzyme (prepared by Daiichi Sankyo RD Novare Co., Ltd., final concentration: 25 ng/mL) diluted with an assay buffer (10 mM Tris-HCl pH of 8.0, 0.1% BSA, 0.01% Tween 20, 1 mM DTT, 12.5% Glycerol) was added thereto. The enzymatic reaction was started by adding 5 μL of a mixed solution [Lys(Ac)9]-Histone H3 (1-21)-NH2, H3K9 (Ac), biotin-labeled, amide (AnaSpec, AS-64190, final concentration: 2 nM) and β-nicotinamide adenine dinucleotide (Sigma-Aldrich, N8285-15VL, final concentration: 10 μM), and the reaction was performed at room temperature for 30 minutes. 10 μL of a mixed solution of nicotinamide (Sigma-Aldrich, 72340-100G, final concentration: 100 mM) prepared with AlphaLISA Epigenetics Buffer (PerkinElmer, AL008C), AlphaLISA Anti-unmodified Histone H3 Lysine 9/Lysine 27 (H3K9/K27) Acceptor Beads (PerkinElmer, AL138, final concentration: 10 μg/mL), and AlphaScreen Streptavidin Donor beads (PerkinElmer, 6760002, final concentration: 5 μg/mL) was added thereto, the reaction was performed at room temperature for 60 minutes and then stopped, and acetylation was detected. The emission intensity was measured by EnVision (PerkinElmer).\nThe relative enzyme activity (%) of the test substance was calculated by the following equation. Relative enzyme activity (%)=[(emission intensity of test substance-added well−emission intensity of DMSO (−) well)/(emission intensity of DMSO (+) well−emission intensity of DMSO (−) well)]×100\nThe EC150 (the concentration of the compound showing a relative enzyme activity of 150%) of the test substance was calculated based on Sigmoidal dose-response (variable slope) of GraphPad Prism (GraphPad Software) using the value of the relative enzyme activity (%) at each concentration, and the results are listed in Tables 1-1 to 1-5.", "units": {"EC150 (the concentration of the compound showing a relative enzyme activity of 150%)": "μm"}, "values": [{"compound": "CC(C)(O)CNC(=O)Nc1nc2c(s1)[C@@H]1COC[C@H](C2)N1c1nc2cc(OCF)ccc2o1", "note": "[Example 57, N-{(4S,8S)-10-[5-(fluoromethoxy)-1,3-benzoxazol-2-yl]-4,7,8,9-tetrahydro-5H-4,8-epiminooxocino[5,4-d][1,3]thiazol-2-yl}-N′-(2-hydroxy-2-methylpropyl)urea]", "EC150 (the concentration of the compound showing a relative enzyme activity of 150%)": 0.93}, {"compound": "C[C@H](O)CNC(=O)Nc1nc2c(s1)C1COCC(C2)N1c1nc(-c2ccc(F)cc2)no1", "note": "(stereo partly drawn) [Example 81, N-{10-[3-(4-fluorophenyl)-1,2,4-oxadiazol-5-yl]-4,7,8,9-tetrahydro-5H-4,8-epiminooxocino[5,4-d][1,3]thiazol-2-yl}-N′-[(2S)-2-hydroxypropyl]urea]", "EC150 (the concentration of the compound showing a relative enzyme activity of 150%)": 1.4}, {"compound": "CNC(=O)Nc1nc2c(s1)[C@@H]1COC[C@H](C2)N1c1nnc(-c2cccc(C(=O)C3CC3)c2)o1", "note": "[Example 21, N-[(4S,8S)-10-{5-[3-(cyclopropanecarbonyl)phenyl]-1,3,4-oxadiazol-2-yl}-4,7,8,9-tetrahydro-5H-4,8-epiminooxocino[5,4-d][1,3]thiazol-2-yl]-N′-methylurea]", "EC150 (the concentration of the compound showing a relative enzyme activity of 150%)": 1.5}, {"compound": "O=C(Nc1nc2c(s1)[C@@H]1COC[C@H](C2)N1c1nc2cc(Cl)ccc2o1)N[C@H]1CC[C@H](O)CC1", "note": "[Example 149, N-[(4S,8S)-10-(5-chloro-1,3-benzoxazol-2-yl)-4,7,8,9-tetrahydro-5H-4,8-epiminooxocino[5,4-d] [1,3]thiazol-2-yl]-N′-[(1r,4r)-4-hydroxycyclohexyl]urea]", "EC150 (the concentration of the compound showing a relative enzyme activity of 150%)": 0.45}, {"compound": "CC(=O)N1CC2Cc3nc(NC(=O)NC(C)C)sc3C(C1)N2c1nc(-c2ccc(F)cc2)no1", "note": "(stereo not shown) [Example 137, N-{6-acetyl-10-[3-(4-fluorophenyl)-1,2,4-oxadiazol-5-yl]-4,5,6,7,8,9-hexahydro-4,8-epimino[1,3]thiazolo[5,4-d]azocin-2-yl}-N′-propan-2-ylurea]", "EC150 (the concentration of the compound showing a relative enzyme activity of 150%)": 0.36}, {"compound": "CNC(=O)Nc1nc2c(s1)[C@@H]1COC[C@H](C2)N1c1nc(-c2ccc(F)cc2)co1", "note": "[Example 17, N-{(4S,8S)-10-[4-(4-fluorophenyl)-1,3-oxazol-2-yl]-4,7,8,9-tetrahydro-5H-4,8-epiminooxocino[5,4-d][1,3]thiazol-2-yl}-N′-methylurea]", "EC150 (the concentration of the compound showing a relative enzyme activity of 150%)": 1.8}, {"compound": "O=C(Nc1nc2c(s1)[C@@H]1COC[C@H](C2)N1c1ncc(-c2cccc(OC(F)F)n2)o1)N[C@H]1CC[C@H](O)CC1", "note": "[Example 176, N-[(4S,8S)-10-{5-[6-(difluoromethoxy)pyridin-2-yl]-1,3-oxazol-2-yl}-4,7,8,9-tetrahydro-5H-4,8-epiminooxocino[5,4-d][1,3]thiazol-2-yl]-N′-[(1r,4r)-4-hydroxycyclohexyl]urea]", "EC150 (the concentration of the compound showing a relative enzyme activity of 150%)": 0.33}, {"compound": "Cc1ccc2oc(N3[C@@H]4COC[C@H]3c3sc(NC(=O)NCC(C)(C)O)nc3C4)nc2c1", "note": "[Example 145, N-(2-hydroxy-2-methylpropyl)-N′-[(4S,8S)-10-(5-methyl-1,3-benzoxazol-2-yl)-4,7,8,9-tetrahydro-5H-4,8-epiminooxocino[5,4-d][1,3]thiazol-2-yl]urea]", "EC150 (the concentration of the compound showing a relative enzyme activity of 150%)": 2.2}, {"compound": "CCO[C@H](C)c1nnc(N2CCc3nc(NC(=O)NC)sc3C2)o1", "note": "[Example 3, N-(5-{5-[(1R)-1-ethoxyethyl]-1,3,4-oxadiazol-2-yl}-4,5,6,7-tetrahydro[1,3]thiazolo[5,4-c]pyridin-2-yl)-N′-methylurea]", "EC150 (the concentration of the compound showing a relative enzyme activity of 150%)": 3.4}, {"compound": "CNC(=O)Nc1nc2c(s1)CN(c1nc(C(C)OCC(F)(F)F)no1)CC2", "note": "(stereo not shown) [Example 4, N-methyl-N′-(5-{3-[1-(2,2,2-trifluoroethoxy)ethyl]-1,2,4-oxadiazol-5-yl}-4,5,6,7-tetrahydro[1,3]thiazolo[5,4-c]pyridin-2-yl)urea]", "EC150 (the concentration of the compound showing a relative enzyme activity of 150%)": 1.2}]}]}
